This is an account of results in patent US7851493B2, “Phenyl-1,2,4-oxadiazolone derivatives with phenyl group, processes for their preparation and their use as pharmaceuticals” (Sanofi-Aventis, priority 2005, dated 2010).

For one test, the target named is T1, human PPARdelta (Homo sapiens, UniProt Q03181).
T1 construct: amino acids S139-Y441; expressed in transfected cells; plasmid pcDNA3
T1 sequence (Q03181 139-441): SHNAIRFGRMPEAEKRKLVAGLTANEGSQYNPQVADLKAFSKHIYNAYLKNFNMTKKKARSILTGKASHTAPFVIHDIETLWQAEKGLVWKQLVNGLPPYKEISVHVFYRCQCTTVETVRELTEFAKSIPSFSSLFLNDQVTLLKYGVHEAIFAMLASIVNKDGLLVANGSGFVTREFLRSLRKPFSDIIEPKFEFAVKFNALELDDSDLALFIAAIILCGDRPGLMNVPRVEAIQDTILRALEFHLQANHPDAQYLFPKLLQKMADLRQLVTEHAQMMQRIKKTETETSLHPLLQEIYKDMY
The test is described as follows: Cellular PPARdelta assay (human GAL4 luciferase reporter, stably transfected HEK cell line). The class given is cell-based. How it is done: Determination of EC50 Values of PPAR Agonists in the Cellular PPARdelta Assay
(§1) The potency of substances which bind to human PPARdelta and activate it in an agonistic manner is analyzed using a stably transfected HEK cell line (HEK=human embryo kidney) which is referred to here as PPARdelta reporter cell line. In analogy to the assay described for PPARalpha, the PPARdelta reporter cell line also contains two genetic elements, a luciferase reporter element (pdeltaM-GAL4-Luc-Zeo) and a PPARdelta fusion protein (GR-GAL4-humanPPARdelta-LBD) which mediates expression of the luciferase reporter element depending on a PPARdelta ligand. The stably and constitutively expressed fusion protein GR-GAL4-humanPPARdelta-LBD binds in the cell nucleus of the PPARdelta reporter cell line via the GAL4 protein portion to the GAL4 DNA binding motifs 5′-upstream of the luciferase reporter element which is stably integrated in the genome of the cell line. There is only little expression of the luciferase reporter gene in the absence of a PPARdelta ligand if fatty acid-depleted fetal calf serum (cs-FCS) is used in the assay. PPARdelta ligands bind and activate the PPARdelta fusion protein and thereby stimulate expression of the luciferase reporter gene. The luciferase which is formed can be detected by means of chemiluminescence via an appropriate substrate.
Construction of the PPARdelta Reporter Cell Line
The production of the stable PPARdelta reporter cell line is based on a stable HEK-cell clone which was stably transfected with a luciferase reporter element. This step was already described above in the section “construction of the PPARalpha reporter cell line”. In a second step, the PPARdelta fusion protein (GR-GAL4-humanPPARdelta-LBD was stably introduced into this cell clone. For this purpose, the cDNA coding for the N-terminal 76 amino acids of the glucocorticoid receptor (Accession #P04150) was linked to the cDNA section coding for amino acids 1-147 of the yeast transcription factor GAL4 (Accession #P04386). The cDNA of the ligand-binding domain of the human PPARdelta receptor (amino acids S139-Y441; Accession #L07592) was cloned in at the 3′-end of this GR-GAL4 construct. The fusion construct prepared in this way (GR-GAL4-humanPPARdelta-LBD) was recloned into the plasmid pcDNA3 (Invitrogen) in order to enable constitutive expression by the cytomegalovirus promoter. This plasmid was linearized with a restriction endonuclease and stably transfected into the previously described cell clone containing the luciferase reporter element. The resulting PPARdelta reporter cell line which contains a luciferase reporter element and constitutively expresses the PPARdelta fusion protein (GR-GAL4-human PPARdelta-LBD) was isolated by selection with zeocin (0.5 mg/ml) and G418 (0.5 mg/ml).
Assay Procedure and Evaluation
The activity of PPARdelta agonists is determined in a 3-day assay in exact analogy to the procedure already described for the PPARalpha reporter cell line except that the PPARdelta reporter cell line and a specific PPARdelta agonist was used as a standard to control test efficacy.
For orientation: A reporter such as luciferase makes a cellular process visible.

Another test concerns the target T2, human PPARalpha (Homo sapiens, UniProt Q07869).
T2 construct: amino acids S167-Y468; expressed in transfected cells; plasmid pcDNA3
T2 sequence (Q07869 167-468): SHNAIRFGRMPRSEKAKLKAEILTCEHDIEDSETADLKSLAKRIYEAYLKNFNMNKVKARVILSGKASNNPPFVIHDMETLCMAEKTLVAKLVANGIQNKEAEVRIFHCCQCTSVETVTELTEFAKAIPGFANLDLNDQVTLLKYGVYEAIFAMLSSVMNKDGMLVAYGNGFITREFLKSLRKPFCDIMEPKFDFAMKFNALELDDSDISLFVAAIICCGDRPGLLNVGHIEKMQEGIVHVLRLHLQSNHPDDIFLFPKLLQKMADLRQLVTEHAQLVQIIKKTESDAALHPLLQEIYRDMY
Put plainly: Cellular PPARalpha assay (human GAL4 luciferase reporter, stably transfected HEK cell line). In kind it is cell-based. How it is done:
Determination of EC50 Values of PPAR Agonists in the Cellular PPARalpha Assay
as §1, with “PPARalpha” for “PPARdelta”, “It” for “In analogy to the assay described for PPARalpha, the PPARdelta reporter cell line also”, “(GR-GAL4-humanPPARalpha-LBD)” for “(GR-GAL4-humanPPARdelta-LBD)”, “GR-GAL4-humanPPARalpha-LBD” for “GR-GAL4-humanPPARdelta-LBD”, “weak” for “little”, “stimulate the” for “stimulate”
Construction of the PPARalpha Reporter Cell Line
The PPARalpha reporter cell line was prepared in two stages. Firstly, the luciferase reporter element was constructed and stably transfected into HEK cells. For this purpose, five binding sites of the yeast transcription factor GAL4 (Accession #AF264724) were cloned in 5′-upstream of a 68 bp-long minimal MMTV promoter (Accession #V01175). The minimal MMTV promoter section contains a […] and a TATA element in order to enable efficient transcription by RNA polymerase II. The cloning and sequencing of the GAL4-MMTV construct took place in analogy to the description of Sambrook J. et al. (Molecular cloning, Cold Spring Harbor Laboratory Press, 1989). Then the complete Photinus pyralis gene (Accession #15077) was cloned in 3′-downstream of the GAL4-MMTV element. After sequencing, the luciferase reporter element consisting of five GAL4 binding sites, MMTV promoter and luciferase gene was recloned into a plasmid which confers zeocin resistance in order to obtain the plasmid pdeltaM-GAL4-Luc-Zeo. This vector was transfected into HEK cells in accordance with the statements in Ausubel, F. M. et al. (Current protocols in molecular biology, Vol. 1-3, John Wiley & Sons, Inc., 1995).
In a second step, the PPARalpha fusion protein (GR-GAL4-humanPPARalpha-LBD was introduced into the stable cell clone described. For this purpose, initially the cDNA coding for the N-terminal 76 amino acids of the glucocorticoid receptor (Accession #P04150) was linked to the cDNA section coding for amino acids 1-147 of the yeast transcription factor GAL4 (Accession #P04386). The cDNA of the ligand-binding domain of the human PPARalpha receptor (amino acids S167-Y468; Accession #S74349) was cloned in at the 3′-end of this GR-GAL4 construct. The fusion construct prepared in this way (GR-GAL4-humanPPARalpha-LBD) was recloned into the plasmid pcDNA3 (Invitrogen) in order to enable constitutive expression therein by the cytomegalovirus promoter. This plasmid was linearized with a restriction endonuclease and stably transfected into the previously described cell clone containing the luciferase reporter element. The finished PPARalpha reporter cell line which contains a luciferase reporter element and constitutively expresses the PPARalpha fusion protein (GR-GAL4-human PPARalpha-LBD) was isolated by selection with zeocin (0.5 mg/ml) and G418 (0.5 mg/ml).
The activity of PPARalpha agonists is determined in a 3-day assay, which is described below: […]

As usually defined, the EC50 is the concentration at which the effect is half-maximal. On to `COc1cc(OCc2sc(-c3ccc(C(F)(F)F)cc3)nc2CN2CCC(C(F)(F)F)C2)ccc1-c1noc(=O)[nH]1` (racemic) [Example 9, 3-{2-Methoxy-4-[2-(4-trifluoromethyl-phenyl)-4-(3-trifluoromethyl-pyrrolidin-1-ylmethyl)thiazol-5-ylmethoxy]-phenyl}-4H-[1,2,4]oxadiazol-5-one], for which the values for the concentration giving a half-maximal response (EC50) on human PPARdelta and at human PPARalpha were 56 nM and 729 nM, respectively.
For `COc1cc(OCc2sc(-c3ccc(C(F)(F)F)cc3)nc2CN2CCC(C(F)(F)F)CC2)ccc1-c1noc(=O)[nH]1` [Example 1, 3-{2-Methoxy-4-[2-(4-trifluoromethyl-phenyl)-4-(4-trifluoromethyl-piperidin-1-ylmethyl)-thiazol-5-ylmethoxy]-phenyl}-4H-[1,2,4]oxadiazol-5-one], the EC50 at human PPARdelta was 56 nM; on human PPARalpha, 830 nM.
As for `COc1cc(OCc2sc(-c3ccc(C(F)(F)F)cc3)nc2CNC2CC2)ccc1-c1noc(=O)[nH]1` [Example 15, 3-{4-[4-Cyclopropylaminomethyl-2-(4-trifluoromethyl-phenyl)-thiazol-5-ylmethoxy]-2-methoxy-phenyl}-4H-[1,2,4]oxadiazol-5-one], the half-maximal effective concentration (EC50) on human PPARdelta is 153 nM; at human PPARalpha it was > 10000 nM.
On the same counts, the results for `CN(CCO)Cc1nc(-c2ccc(C(F)(F)F)cc2)sc1COc1ccc(-c2noc(=O)[nH]2)c(F)c1` [Example 19, 3-{2-Fluoro-4-[4-{[(2-hydroxy-ethyl)-methyl-amino]-methyl}-2-(4-trifluoromethyl-phenyl)-thiazol-5-ylmethoxy]-phenyl}-4H-[1,2,4]oxadiazol-5-one] are 171 nM and 1190 nM.
On the same counts, the results for `CC(=O)OCc1nc(-c2ccc(C(F)(F)F)cc2)sc1COc1ccc(-c2noc(=O)[nH]2)c(F)c1` [Example 33, Acetic acid 5-[3-fluoro-4-(5-oxo-4,5-dihydro-[1,2,4]oxadiazol-3-yl)-phenoxymethyl]-2-(4-trifluoromethyl-phenyl)-thiazol-4-ylmethyl ester] are 299 nM and 1410 nM.
In the case of `Cc1cc(OCc2sc(-c3ccc(C(F)(F)F)cc3)nc2CNCCN2CCOCC2)ccc1-c1noc(=O)[nH]1` [Example 51, 3-{2-Methyl-4-[4-[(2-morpholin-4-yl-ethylamino)-methyl]-2-(4-trifluoromethyl-phenyl)-thiazol-5-ylmethoxy]-phenyl}-4H-[1,2,4]oxadiazol-5-one], the concentration for a half-maximal effect (EC50) was found to be 228 nM on human PPARdelta and 1210 nM at human PPARalpha.
Consider `COCc1nc(/C=C/c2ccc(OC)cc2)oc1COc1ccc(-c2noc(=O)[nH]2)c(Cl)c1` [Example 55, 3-(2-Chloro-4-[4-methoxymethyl-2-[2-(4-methoxy-phenyl)-vinyl]-oxazol-5-ylmethoxy]-phenyl)-4H-[1,2,4]oxadiazol-5-one], for which the half-maximal effective concentration (EC50) on human PPARdelta came out at 3 nM; at human PPARalpha, 319 nM.
On to `Cc1nc(COCc2ccccc2)oc1COc1ccc(-c2noc(=O)[nH]2)c(Cl)c1` [Example 56, 3-[4-(2-Benzyloxymethyl-4-methyl-oxazol-5-ylmethoxy)-2-chloro-phenyl]-4H-[1,2,4]oxadiazol-5-one], for which the EC50 amounted to 358 nM on human PPARdelta and 2190 nM on human PPARalpha.
Take `COc1ccc(-c2nc(COc3ccc(-c4noc(=O)[nH]4)c(C)c3)c(CN3CCOCC3)o2)cc1` [Example 68, 3-{4-[2-(4-Methoxy-phenyl)-5-morpholin-4-ylmethyl-oxazol-4-ylmethoxy]-2-methyl-phenyl}-4H-[1,2,4]oxadiazol-5-one]: the results for the concentration giving a half-maximal response (EC50) on human PPARdelta and on human PPARalpha were 661 nM and 1200 nM, respectively.
For `COCCN(CCOC)Cc1nc(-c2ccc(C(F)(F)F)cc2)sc1COc1ccc(-c2noc(=O)[nH]2)c(Cl)c1` [Example 77, 3-{4-[4-{[Bis-(2-methoxy-ethyl)-amino]-methyl}-2-(4-trifluoromethyl-phenyl)-thiazol-5-ylmethoxy]-2-chloro-phenyl}-4H-[1,2,4]oxadiazol-5-one] the same measures were 3 nM and 530 nM.
For `O=c1[nH]c(-c2ccc(OCc3sc(-c4ccc(C(F)(F)F)cc4)nc3COCCC3CCCCC3)cc2Cl)no1` [Example 83, 3-{2-Chloro-4-[4-(2-cyclohexyl-ethoxymethyl)-2-(4-trifluoromethyl-phenyl)-thiazol-5-ylmethoxy]-phenyl}-4H-[1,2,4]oxadiazol-5-one], the figures for the EC50 on human PPARdelta and on human PPARalpha were 12 nM and 398 nM, respectively.
On to `COc1cc(OCc2sc(-c3ccc(C(F)(F)F)cc3)nc2CSC)ccc1-c1noc(=O)[nH]1` [Example 89, 3-{2-Methoxy-4-[4-methylsulfanylmethyl-2-(4-trifluoromethyl-phenyl)-thiazol-5-ylmethoxy]-phenyl}-4H-1,2,4-oxadiazol-5-one], for which the figures for the EC50 at human PPARdelta and on human PPARalpha were 153 nM and 2620 nM, respectively.
